Measured values: PubChem BioAssay AID330 (DTP/NCI, 2004)
“And” between values parts separate entries of the source, which are not always exact repeats. Equal entries are not always repeated. Toxic doses and inconclusive results are not listed.

Tested on: P388 leukemia ip, CD2F1 mice, survival T/C
Assay: NCI In Vivo Anticancer Drug Screen. Data for tumor model P388 Leukemia (intraperitoneal) in CD2F1 (CDF1) mice
Conditions: endpoint: median survival time, higher = longer survival
Method in brief: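 Mice carrying the transplanted tumor received test compound or vehicle. Survival was recorded in each group, and the value is the treated-group measurement divided by that of the vehicle-treated control group.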

[1] = dose: 50.0 mg/kg/injection, schedule: Q01DX009 (ip), vehicle: Klucel (hydroxypropylcellulose) (HPC)
[2] = dose: 100.0 mg/kg/injection, schedule: Q01DX009 (ip), vehicle: Klucel (hydroxypropylcellulose) (HPC)
[3] = dose: 200.0 mg/kg/injection, schedule: Q01DX009 (ip), vehicle: Klucel (hydroxypropylcellulose) (HPC)
[4] = dose: 25.0 mg/kg/injection, schedule: Q01DX009 (ip), vehicle: saline with Tween-80
[5] = dose: 50.0 mg/kg/injection, schedule: Q01DX009 (ip), vehicle: saline with Tween-80
[6] = dose: 100.0 mg/kg/injection, schedule: Q01DX009 (ip), vehicle: saline with Tween-80
[7] = dose: 200.0 mg/kg/injection, schedule: Q01DX009 (ip), vehicle: saline with Tween-80
[8] = dose: 100.0 mg/kg/injection, schedule: Q01DX001 (ip), vehicle: saline with Tween-80
[9] = dose: 200.0 mg/kg/injection, schedule: Q01DX001 (ip), vehicle: saline with Tween-80
[10] = dose: 400.0 mg/kg/injection, schedule: Q01DX001 (ip), vehicle: saline with Tween-80

For `CC[C@](O)(C(=O)O)c1cc2n(c(=O)c1CO)Cc1cc3ccccc3nc1-2`, the T/C (dose: 0.5 mg/kg/injection, schedule: Q01DX009 (ip), vehicle: saline with Tween-80) was 118 % of control, the T/C (dose: 0.5 mg/kg/injection, schedule: Q01DX009 (ip), vehicle: water) was 120 % of control and the T/C (dose: 1.57 mg/kg/injection, schedule: Q04DX003 (ip), vehicle: other) was 116 % of control and 119 % of control. The T/C (dose: 2.0 mg/kg/injection, schedule: Q01DX009 (ip), vehicle: saline sonified) was 163 % of control, the T/C (dose: 2.0 mg/kg/injection, schedule: Q01DX009 (ip), vehicle: saline with Tween-80) was 159 % of control and the T/C (dose: 2.0 mg/kg/injection, schedule: Q01DX009 (ip), vehicle: water) was 158 % of control. For the same molecule, the T/C (dose: 2.5 mg/kg/injection, schedule: Q04DX003 (ip), vehicle: water) was 120 % of control, the T/C (dose: 4.0 mg/kg/injection, schedule: Q01DX009 (ip), vehicle: saline sonified) was 100 % of control and the T/C (dose: 4.0 mg/kg/injection, schedule: Q01DX009 (ip), vehicle: saline with Tween-80) was 195 % of control. The T/C (dose: 4.0 mg/kg/injection, schedule: Q01DX009 (ip), vehicle: water) was 207 % of control, the T/C (dose: 5.0 mg/kg/injection, schedule: Q04DX003 (ip), vehicle: water) was 111 % of control and the T/C (dose: 6.25 mg/kg/injection, schedule: Q04DX003 (ip), vehicle: other) was 156 % of control and 159 % of control. The T/C (dose: 6.25 mg/kg/injection, schedule: Q04DX003 (ip), vehicle: water) was 154 % of control, the T/C (dose: 8.0 mg/kg/injection, schedule: Q01DX009 (ip), vehicle: water) was 100 % of control and the T/C (dose: 9.72 mg/kg/injection, schedule: Q04DX002 (ip), vehicle: saline) was 108 % of control. The T/C (dose: 10.0 mg/kg/injection, schedule: Q04DX003 (ip), vehicle: water) was 155 % of control, the T/C (dose: 10.8 mg/kg/injection, schedule: Q04DX002 (ip), vehicle: saline) was 160 % of control and the T/C (dose: 12.5 mg/kg/injection, schedule: Q04DX003 (ip), vehicle: other) was 106 % of control and 113 % of control. For the same molecule, the T/C (dose: 13.0 mg/kg/injection, schedule: Q04DX003 (ip), vehicle: saline) was 185 % of control, the T/C (dose: 18.0 mg/kg/injection, schedule: Q04DX002 (ip), vehicle: saline) was 159 % of control and the T/C (dose: 20.0 mg/kg/injection, schedule: Q04DX003 (ip), vehicle: water) was 178 % of control and 220 % of control. The T/C (dose: 21.6 mg/kg/injection, schedule: Q04DX003 (ip), vehicle: saline) was 217 % of control, the T/C (dose: 25.0 mg/kg/injection, schedule: Q04DX003 (ip), vehicle: other) was 98 % of control and 90 % of control and the T/C (dose: 25.0 mg/kg/injection, schedule: Q04DX003 (ip), vehicle: water) was 154 % of control. The T/C (dose: 30.0 mg/kg/injection, schedule: Q04DX002 (ip), vehicle: saline) was 177 % of control, the T/C (dose: 36.0 mg/kg/injection, schedule: Q04DX003 (ip), vehicle: saline) was 233 % of control and the T/C (dose: 40.0 mg/kg/injection, schedule: Q04DX003 (ip), vehicle: water) was 212 % of control and 94 % of control. The T/C (dose: 45.0 mg/kg/injection, schedule: Q04DX002 (ip), vehicle: saline) was 157 % of control and 196 % of control, the T/C (dose: 50.0 mg/kg/injection, schedule: Q04DX002 (ip), vehicle: saline) was 183 % of control and the T/C (dose: 60.0 mg/kg/injection, schedule: Q04DX003 (ip), vehicle: saline) was 93 % of control. The T/C (dose: 83.3 mg/kg/injection, schedule: Q04DX002 (ip), vehicle: saline) was 91 % of control and the T/C (dose: 128.0 mg/kg/injection, schedule: Q04DX003 (ip), vehicle: saline) was 58 % of control.

`CC1C(c2ccccc2)OCCN1C=NC#N` (stereo not drawn) was tested, and the T/C [1] was 102 % of control, the T/C [2] was 103 % of control and the T/C [3] was 103 % of control.

In the case of `O=c1sc2ccccc2n1CCCl`, the T/C [4] is reported as 112 % of control, the T/C [5] is reported as 110 % of control and the T/C [6] is reported as 114 % of control. For the same molecule, the T/C [7] was 103 % of control.

For `COc1cc(NC(C)CN(CC(C)C)CC(C)C)c2ncccc2c1Cl` (stereo not drawn), the T/C (dose: 50.0 mg/kg/injection, schedule: Q01DX005 (ip), vehicle: saline) was 100 % of control, the T/C (dose: 100.0 mg/kg/injection, schedule: Q01DX005 (ip), vehicle: saline) was 103 % of control and the T/C (dose: 200.0 mg/kg/injection, schedule: Q01DX005 (ip), vehicle: saline) was 116 % of control.

For `CN(C)CCCN1c2ccccc2Sc2ccc(Cl)cc21`, the T/C (dose: 1.0 mg/kg/injection, schedule: Q01DX005 (ip), vehicle: saline) was 99 % of control, the T/C (dose: 2.0 mg/kg/injection, schedule: Q01DX005 (ip), vehicle: saline) was 96 % of control and the T/C (dose: 4.0 mg/kg/injection, schedule: Q01DX005 (ip), vehicle: saline) was 104 % of control. The T/C (dose: 6.25 mg/kg/injection, schedule: Q01DX009 (ip), vehicle: saline with Tween-80) was 95 % of control, the T/C (dose: 7.5 mg/kg/injection, schedule: Q04DX003 (ip), vehicle: saline) was 112 % of control and the T/C (dose: 8.0 mg/kg/injection, schedule: Q01DX005 (ip), vehicle: saline) was 106 % of control. The T/C (dose: 12.5 mg/kg/injection, schedule: Q04DX003 (ip), vehicle: Klucel (hydroxypropylcellulose) (HPC)) was 111 % of control, the T/C (dose: 12.5 mg/kg/injection, schedule: Q04DX003 (ip), vehicle: saline) was 108 % of control and 113 % of control and 120 % of control and the T/C (dose: 15.0 mg/kg/injection, schedule: Q04DX003 (ip), vehicle: saline) was 120 % of control. The T/C (dose: 16.0 mg/kg/injection, schedule: Q01DX005 (ip), vehicle: saline) was 106 % of control, the T/C [4] was 100 % of control and the T/C (dose: 25.0 mg/kg/injection, schedule: Q04DX003 (ip), vehicle: saline) was 111 % of control and 114 % of control and 118 % of control. The T/C (dose: 32.0 mg/kg/injection, schedule: Q01DX005 (ip), vehicle: saline) was 116 % of control, the T/C (dose: 50.0 mg/kg/injection, schedule: Q04DX003 (ip), vehicle: Klucel (hydroxypropylcellulose) (HPC)) was 108 % of control and the T/C (dose: 50.0 mg/kg/injection, schedule: Q04DX003 (ip), vehicle: saline) was 105 % of control. For the same molecule, the T/C (dose: 64.0 mg/kg/injection, schedule: Q01DX005 (ip), vehicle: saline) was 105 % of control and the T/C (dose: 100.0 mg/kg/injection, schedule: Q04DX003 (ip), vehicle: saline) was 99 % of control.

For `CN(C)CSc1nc2ccccc2s1`, the T/C [1] was 96 % of control, the T/C [2] was 94 % of control and the T/C [3] was 94 % of control. The T/C (dose: 400.0 mg/kg/injection, schedule: Q01DX009 (ip), vehicle: Klucel (hydroxypropylcellulose) (HPC)) was 95 % of control.

With `Cc1ccc(S(=O)(=O)N/N=C/c2c(Cl)n(C(=O)c3cccc(C)c3)c3ccccc23)cc1` the T/C (dose: 50.0 mg/kg/injection, schedule: Q01DX001 (ip), vehicle: Klucel (hydroxypropylcellulose) (HPC)) was 97 % of control, the T/C (dose: 100.0 mg/kg/injection, schedule: Q01DX001 (ip), vehicle: Klucel (hydroxypropylcellulose) (HPC)) was 90 % of control and the T/C (dose: 200.0 mg/kg/injection, schedule: Q01DX001 (ip), vehicle: Klucel (hydroxypropylcellulose) (HPC)) was 87 % of control.

For `O=C1NC(=O)C2(CCCc3c([N+](=O)[O-])cccc32)N1` (stereo not drawn), the T/C [5] was 97 % of control, the T/C [6] was 93 % of control and the T/C [7] was 90 % of control.

For `O=C(/C=C/c1ccccc1)c1c2ccccc2cc2ccccc12`, the T/C [8] was 107 % of control, the T/C [9] was 100 % of control and the T/C [10] was 91 % of control.

For `CCCCCCCCCCCCCCCCN1CCC2SC3CN(CCCCCCCCCCCCCCCC)CCC3SC2C1` (stereo not drawn), the T/C [5] was 99 % of control, the T/C [6] was 96 % of control and the T/C [7] was 97 % of control.

For `CC1=CO/C(=C\[Si](C)(C)C)OC1c1ccccc1` (stereo not drawn), the T/C [8] was 104 % of control, the T/C [9] was 108 % of control and the T/C [10] was 103 % of control.

For `COc1ccc2c3c1OC1C(OC)(OC)C=C[C@@]4(Br)[C@@H](C2)N(C)CC[C@]314` (stereo partly drawn), the T/C [8] was 109 % of control, the T/C [9] was 106 % of control and the T/C [10] was 123 % of control.

In the case of `Cc1ccc(S(=O)(=O)NC(CCCNC(=O)OCc2ccccc2)C(=O)O)cc1` (stereo not drawn), the T/C (dose: 50.0 mg/kg/injection, schedule: Q01DX005 (ip), vehicle: Klucel (hydroxypropylcellulose) (HPC)) is reported as 100 % of control, the T/C (dose: 100.0 mg/kg/injection, schedule: Q01DX005 (ip), vehicle: Klucel (hydroxypropylcellulose) (HPC)) is reported as 99 % of control and the T/C (dose: 200.0 mg/kg/injection, schedule: Q01DX005 (ip), vehicle: Klucel (hydroxypropylcellulose) (HPC)) is reported as 96 % of control.

For `CC(OS(C)(=O)=O)C(C)OS(C)(=O)=O` (stereo not drawn), the T/C (dose: 100.0 mg/kg/injection, schedule: Q04DX003 (ip), vehicle: Klucel (hydroxypropylcellulose) (HPC)) was 89 % of control, the T/C (dose: 200.0 mg/kg/injection, schedule: Q04DX003 (ip), vehicle: Klucel (hydroxypropylcellulose) (HPC)) was 116 % of control and the T/C (dose: 400.0 mg/kg/injection, schedule: Q04DX003 (ip), vehicle: Klucel (hydroxypropylcellulose) (HPC)) was 120 % of control.

For `O=S(=O)(O)c1cc(N=C=S)ccc1/C=C/c1ccc(N=C=S)cc1S(=O)(=O)O`, the T/C (dose: 25.0 mg/kg/injection, schedule: Q01DX005 (ip), vehicle: saline) was 108 % of control and 110 % of control.
